This is an account of results in patent US20260327191A1, “GSK3a INHIBITORS AND METHODS OF USE THEREOF” (Blueprint Medicines Corporation, priority 2023, published 2026).

For one assay, the target named is T1, human GSK3α (Homo sapiens, UniProt P49840).
T1 construct: Full length human GSK3α or GSK3B expressed as N-terminal GST fusion proteins; GST (N); purchased Carna Biosciences (Japan); host or cells: baculovirus host
Nature of the assay: In vitro enzymatic activity assay, GSK3α. The assay is classed as biochemical. The following applies: 1.0 mM ATP, 1.0 μM peptide substrate, 120 min, 25° C, read-out: Enzyme GSK3α (IC50). As to the method:
(§1) Full length human GSK3α or GSK3B expressed as N-terminal GST fusion proteins in baculovirus host were purchased from Carna Biosciences (Japan). The kinase was pre-incubated with ATP (adenosine-5′-triphosphate) for 45 min, then incubated with tested compounds for another 45 min in assay buffer that contains 100 mM HEPES (N-2-hydroxyethylpiperazine-N′-2-ethanesulfonic acid), pH 7.5, 10 mM MgCl2, 1.0 mM DTT, and 0.015% Briji-35. […] Percent inhibition was plotted against compound concentration to generate 10-point dose response curve with 3-fold serial dilution starting from 10 μM. IC50 value was determined from the 4-parameter logistic curve fitting.

Another assay addresses T2, GSK3A (Homo sapiens, UniProt P49840).
T2 construct: expressed in transfected cells
As to the kind of experiment: NanoBRET cellular target engagement assay, Nanoluc-GSK3A in HEK293 cells. The assay is classed as cell-based. The conditions noted are these: NanoBRET GSK3α IC50, HEK293 cells, tracer K-8, 2 hours, 37° C. As to the method: (§2) In the assay, HEK293 cells stably expressing either Nanoluc-GSK3A or Nanoluc-GSK3B were maintained in culture media and seeded, using a multidrop dispenser, at a density of 5×10^3 cells per well in 384-well white plates with 100 ng/ml doxycycline (Sigma) overnight.
(§3) Compound was first diluted in DMSO to generate a 9-point serial dilution then diluted to 10× final concentration in Opti-MEM™ (Gibco). After overnight incubation, cell medium was aspirated from the seeded cells using a microplate automatic washer, then 27 μL of pre-warmed Opti-MEM™ with kinase tracer (K-8) and 3 μL of Opti-MEM™ diluted DMSO or compounds were added per well. Plates were protected from light, mixed in an orbital shaker for 3 min at RT and incubated at 37° C., 5% CO2 in a humidified incubator for 2 hours. After acclimation at RT for 15 min, 15 μL of 3× complete NanoBRET™ Nano-Glo Substrate/Inhibitor (Promega) was added per well. Plates were mixed in an orbital shaker for 3 min at RT and incubated for an additional 30 min. Donor emission at 460 nm and acceptor emission at 647 nm were measured in EnVision multilabel plate reader (Perkin Elmer).
A general note: BRET reads energy transfer from a luciferase to a nearby fluorophore.

In assay [1] the target is T3, GSK3B (Homo sapiens, UniProt P49841). As to the kind of experiment: NanoBRET cellular target engagement assay, Nanoluc-GSK3B in HEK293 cells. The assay is classed as cell-based. Further details: expressed in transfected cells. The following applies: NanoBRET GSK3β IC50, HEK293 cells, tracer K-8, 2 hours, 37° C. As to the method: as §2, §3
T3 sequence (P49841 whole entry, the tested form may be a part): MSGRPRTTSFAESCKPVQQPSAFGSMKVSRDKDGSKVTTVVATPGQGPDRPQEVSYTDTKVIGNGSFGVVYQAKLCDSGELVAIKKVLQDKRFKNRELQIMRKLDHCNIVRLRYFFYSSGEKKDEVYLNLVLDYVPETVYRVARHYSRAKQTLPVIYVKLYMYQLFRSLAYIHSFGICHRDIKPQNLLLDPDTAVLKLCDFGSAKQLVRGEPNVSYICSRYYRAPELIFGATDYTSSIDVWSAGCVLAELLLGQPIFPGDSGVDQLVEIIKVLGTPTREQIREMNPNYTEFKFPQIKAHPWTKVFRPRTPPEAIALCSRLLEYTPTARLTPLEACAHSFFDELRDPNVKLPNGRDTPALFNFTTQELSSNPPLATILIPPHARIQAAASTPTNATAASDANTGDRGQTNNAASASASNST
Assay [2] deals with T3, GSK3B. Nature of the assay: In vitro enzymatic activity assay, GSK3β. The assay is classed as biochemical. Further details: Full length human GSK3α or GSK3B expressed as N-terminal GST fusion proteins; GST (N); purchased Carna Biosciences (Japan); host or cells: baculovirus host. The conditions noted are these: 1.0 mM ATP, 1.0 μM peptide substrate, 120 min, 25° C, read-out: Enzyme GSK3β (IC50). As to the method: as §1

The structures appear in SMILES notation.

T1 sequence (P49840 whole entry, the tested form may be a part): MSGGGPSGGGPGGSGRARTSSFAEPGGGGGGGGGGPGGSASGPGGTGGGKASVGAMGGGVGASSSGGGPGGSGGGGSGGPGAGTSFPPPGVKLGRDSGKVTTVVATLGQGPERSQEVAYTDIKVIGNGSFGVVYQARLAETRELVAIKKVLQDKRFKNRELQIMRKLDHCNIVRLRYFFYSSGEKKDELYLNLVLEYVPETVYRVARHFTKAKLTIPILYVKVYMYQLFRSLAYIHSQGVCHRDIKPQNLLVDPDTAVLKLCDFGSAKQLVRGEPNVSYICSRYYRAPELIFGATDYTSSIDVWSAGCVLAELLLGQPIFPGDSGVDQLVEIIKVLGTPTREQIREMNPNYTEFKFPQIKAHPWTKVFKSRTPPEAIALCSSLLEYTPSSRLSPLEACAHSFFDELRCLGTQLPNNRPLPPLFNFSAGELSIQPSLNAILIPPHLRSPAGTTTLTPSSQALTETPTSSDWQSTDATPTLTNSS
T2 sequence (P49840 whole entry): as the sequence (P49840 whole entry, the tested form may be a part) above

As a reminder, the IC50 is the midpoint of a concentration-inhibition curve. Regarding `CNC(C)c1cncc(NC(=O)c2c(N)ncn(-c3c(Cl)cc(Cl)cc3Cl)c2=O)c1` (single isomer, unassigned) [Example 12, (R)-4-amino-N-(5-(1-(methylamino)ethyl)pyridin-3-yl)-6-oxo-1-(2,4,6-trichlorophenyl)-1,6-dihydropyrimidine-5-carboxamide or (S)-4-amino-N-(5-(1-(methylamino)ethyl)pyridin-3-yl)-6-oxo-1-(2,4,6-trichlorophenyl)-1,6-dihydropyrimidine-5-carboxamide], the half-inhibitory concentration (IC50) turned out to be 3.8 nM at human GSK3α, 2.4 nM against GSK3A, 141 nM against GSK3B [1] and 199 nM at GSK3B [2].
For `CNC(C)c1cncc(NC(=O)c2c(N)ncn(-c3c(Cl)cc(Cl)cc3Cl)c2=O)c1` (single isomer, unassigned) [Example 13, (S)-4-amino-N-(5-(1-(methylamino)ethyl)pyridin-3-yl)-6-oxo-1-(2,4,6-trichlorophenyl)-1,6-dihydropyrimidine-5-carboxamide or (R)-4-amino-N-(5-(1-(methylamino)ethyl)pyridin-3-yl)-6-oxo-1-(2,4,6-trichlorophenyl)-1,6-dihydropyrimidine-5-carboxamide] the same measures were 17.7 nM, 9.8 nM, 503 nM and 1010 nM.
Turning to `[2H]C([2H])([2H])NC(C)c1cncc(NC(=O)c2c(N)ncn(-c3c(C)cc(C(F)(F)F)cc3Cl)c2=O)c1` (single isomer, unassigned) [Example 16, (R)-4-amino-1-((S)-2-chloro-6-methyl-4-(trifluoromethyl)phenyl)-N-(5-(1-((methyl-d3)amino)ethyl)pyridin-3-yl)-6-oxo-1,6-dihydropyrimidine-5-carboxamide or (S)-4-amino-1-((S)-2-chloro-6-methyl-4-(trifluoromethyl)phenyl)-N-(5-(1-((methyl-d3)amino)ethyl)pyridin-3-yl)-6-oxo-1,6-dihydropyrimidine-5-carboxamide], the IC50 amounted to 4.1 nM at human GSK3α, 1.9 nM at GSK3A, 132 nM at GSK3B [1] and 255 nM on GSK3B [2].
For `CNC(C)c1cncc(NC(=O)c2c(N)ncn(-c3c(Cl)cc(OC)cc3Cl)c2=O)c1` (single isomer, unassigned) [Example 18, (S)-4-amino-1-(2,6-dichloro-4-methoxyphenyl)-N-(5-(1-(methylamino)ethyl)pyridin-3-yl)-6-oxo-1,6-dihydropyrimidine-5-carboxamide or (R)-4-amino-1-(2,6-dichloro-4-methoxyphenyl)-N-(5-(1-(methylamino)ethyl)pyridin-3-yl)-6-oxo-1,6-dihydropyrimidine-5-carboxamide] the same measures were 11.9 nM, 7.1 nM, 429 nM and 622 nM.
In the same order, the values of `CNC(C)c1cncc(NC(=O)c2c(N)ncn(-c3c(Cl)cc(OC)cc3Cl)c2=O)c1` (single isomer, unassigned) [Example 19, (R)-4-amino-1-(2,6-dichloro-4-methoxyphenyl)-N-(5-(1-(methylamino)ethyl)pyridin-3-yl)-6-oxo-1,6-dihydropyrimidine-5-carboxamide or (S)-4-amino-1-(2,6-dichloro-4-methoxyphenyl)-N-(5-(1-(methylamino)ethyl)pyridin-3-yl)-6-oxo-1,6-dihydropyrimidine-5-carboxamide] are 3.2 nM, 3.5 nM, 180 nM and 232 nM.
